Data: patent US8138119B2, “Alkoxyalkyl spirocyclic tetramic acids and tetronic acids” (Bayer Cropscience AG, priority 2005, dated 2012)

Assay: Determination of the log P values by HPLC on a reversed-phase column (C18)
Format: physicochemical
Experimental: The log P values given in the table were determined in accordance with EEC Directive 79/831 Annex V.A8 by HPLC (High Performance Liquid Chromatography) on a reversed-phase column (C18). Temperature: 43° C.
Mobile phases for the determination in the acidic range (pH 2.3): 0.1% aqueous phosphoric acid, acetonitrile; linear gradient from 10% acetonitrile to 90% acetonitrile
Calibration was carried out using unbranched alkan-2-ones (with 3 to 16 carbon atoms) whose log P values are known (determination of the log P values by the retention times using linear interpolation between two successive alkanones).

[1] = compounds of the formula (III), cis/trans isomer mixture, first value of the cell
[2] = compounds of the formula (III), cis/trans isomer mixture, second value of the cell
[3] = compounds of the formula (I-2-a), m.p. ° C./log P

log P [1] | log P [2] | log P [3] | SMILES
5.50 | 5.58 |  | CCOC(=O)C1(OC(=O)Cc2cc(-c3ccc(Cl)cc3)ccc2C)CCCC(COC)C1 (mixture of isomers) [III-2]
4.94 | 5.05 |  | CCOC(=O)C1(OC(=O)Cc2c(C)cc(Br)cc2C)CCCC(COC)C1 (mixture of isomers) [III-3]
4.82 | 4.93 |  | CCOC(=O)C1(OC(=O)Cc2c(C)cc(Cl)cc2C)CCCC(COC)C1 (mixture of isomers) [III-4]
4.85 | 4.93 |  | CCOC(=O)C1(OC(=O)Cc2cc(C)c(C)cc2C)CCCC(COC)C1 (mixture of isomers) [III-5]
5.52 | 5.62 |  | CCOC(=O)C1(OC(=O)Cc2c(CC)cc(Br)cc2CC)CCCC(COC)C1 (mixture of isomers) [III-7]
5.36 | 5.49 |  | CCOC(=O)C1(OC(=O)Cc2cc(-c3ccc(Cl)cc3)ccc2C)CCC(COC)CC1 (mixture of isomers) [III-8]
4.76 | 4.88 |  | CCOC(=O)C1(OC(=O)Cc2c(C)cc(C)cc2C)CCC(COC)CC1 (mixture of isomers) [III-12]
5.52 | 5.65 |  | CCOC(=O)C1(OC(=O)Cc2c(CC)cc(Br)cc2CC)CCC(COC)CC1 (mixture of isomers) [III-13]
5.39 | 5.51 |  | CCOC(=O)C1(OC(=O)Cc2c(CC)cc(C)cc2CC)CCC(COC)CC1 (mixture of isomers) [III-14]
5.90 | 5.98 |  | CCOC(=O)C1(OC(=O)Cc2cc(C)c(-c3ccc(Cl)cc3)cc2C)CCC(COC)CC1 (mixture of isomers) [III-15]
5.52 | 5.67 |  | CCOC(=O)C1(OC(=O)Cc2cc(-c3ccc(Cl)cc3)ccc2Cl)CCC(COC)CC1 (mixture of isomers) [III-16]
5.13 | 5.26 |  | CCOC(=O)C1(OC(=O)Cc2c(C)cc(Br)cc2C)CCCC(CCOC)C1 (mixture of isomers) [III-19]
4.94 | 5.05 |  | CCOC(=O)C1(OC(=O)Cc2cc(C)c(C)cc2C)CCCC(CCOC)C1 (mixture of isomers) [III-21]
5.69 | 5.81 |  | CCOC(=O)C1(OC(=O)Cc2c(CC)cc(Br)cc2CC)CCCC(CCOC)C1 (mixture of isomers) [III-23]
5.56 | 5.66 |  | CCOC(=O)C1(OC(=O)Cc2c(CC)cc(C)cc2CC)CCCC(CCOC)C1 (mixture of isomers) [III-24]
6.03 | 6.12 |  | CCOC(=O)C1(OC(=O)Cc2cc(C)c(-c3ccc(Cl)cc3)cc2C)CCCC(CCOC)C1 (mixture of isomers) [III-25]
5.67 | 5.82 |  | CCOC(=O)C1(OC(=O)Cc2cc(-c3ccc(Cl)cc3)ccc2Cl)CCCC(CCOC)C1 (mixture of isomers) [III-26]
5.13 | 5.29 |  | CCOC(=O)C1(OC(=O)Cc2c(C)cc(Br)cc2C)CCC(CCOC)CC1 (mixture of isomers) [III-29]
5.00 | 5.09 |  | CCOC(=O)C1(OC(=O)Cc2cc(C)c(C)cc2C)CCC(CCOC)CC1 (mixture of isomers) [III-31]
5.75 | 5.90 |  | CCOC(=O)C1(OC(=O)Cc2c(CC)cc(Br)cc2CC)CCC(CCOC)CC1 (mixture of isomers) [III-32]
5.64 | 5.75 |  | CCOC(=O)C1(OC(=O)Cc2c(CC)cc(C)cc2CC)CCC(CCOC)CC1 (mixture of isomers) [III-33]
6.14 | 6.19 |  | CCOC(=O)C1(OC(=O)Cc2cc(C)c(-c3ccc(Cl)cc3)cc2C)CCC(CCOC)CC1 (mixture of isomers) [III-34]
5.70 | 5.85 |  | CCOC(=O)C1(OC(=O)Cc2cc(-c3ccc(Cl)cc3)ccc2Cl)CCC(CCOC)CC1 (mixture of isomers) [III-35]
 |  | oil/2.78 | COCC1CCCC2(C1)OC(=O)C(c1cc(C)c(C)cc1C)=C2O (stereo not shown) [1-2-a-5]
 |  | oil/3.13 | COCCC1CCCC2(C1)OC(=O)C(c1c(C)cc(Br)cc1C)=C2O (stereo not shown) [Example I-2-a-19]
 |  | oil/2.96 | COCCC1CCCC2(C1)OC(=O)C(c1cc(C)c(C)cc1C)=C2O (stereo not shown) [Example I-2-a-21]

The remaining lines, values behind:

SMILES | log P [1] | log P [2] | log P [3]
CCOC(=O)C1(OC(=O)Cc2c(C)cc(C)cc2C)CCCC(COC)C1 (mixture of isomers) [III-6] | 4.85 | 4.94 | 
CCOC(=O)C1(OC(=O)Cc2c(C)cc(Br)cc2C)CCC(COC)CC1 (mixture of isomers) [III-9] | 4.88 | 5.01 | 
CCOC(=O)C1(OC(=O)Cc2c(C)cc(Cl)cc2C)CCC(COC)CC1 (mixture of isomers) [III-10] | 4.76 | 4.90 | 
CCOC(=O)C1(OC(=O)Cc2cc(C)c(C)cc2C)CCC(COC)CC1 (mixture of isomers) [III-11] | 4.74 | 4.85 | 
CCOC(=O)C1(OC(=O)Cc2c(C)ccc(-c3ccc(Cl)cc3)c2C)CCC(COC)CC1 (mixture of isomers) [III-17] | 5.86 | 5.96 | 
CCOC(=O)C1(OC(=O)Cc2cc(-c3ccc(Cl)cc3)ccc2C)CCCC(CCOC)C1 (mixture of isomers) [III-18] | 5.68 | 5.80 | 
CCOC(=O)C1(OC(=O)Cc2c(C)cc(Cl)cc2C)CCCC(CCOC)C1 (mixture of isomers) [III-20] | 5.00 | 5.11 | 
CCOC(=O)C1(OC(=O)Cc2c(C)cc(C)cc2C)CCCC(CCOC)C1 (mixture of isomers) [III-22] | 4.94 | 5.05 | 
CCOC(=O)C1(OC(=O)Cc2c(C)ccc(-c3ccc(Cl)cc3)c2C)CCCC(CCOC)C1 (mixture of isomers) [III-27] | 6.02 | 6.09 | 
CCOC(=O)C1(OC(=O)Cc2cc(-c3ccc(Cl)cc3)ccc2C)CCC(CCOC)CC1 (mixture of isomers) [III-28] | 5.69 | 5.81 | 
CCOC(=O)C1(OC(=O)Cc2c(C)cc(Cl)cc2C)CCC(CCOC)CC1 (mixture of isomers) [III-30] | 5.00 | 5.15 | 
COCC1CCCC2(C1)OC(=O)C(c1cc(-c3ccc(Cl)cc3)ccc1C)=C2O (stereo not shown) [Example I-2-a-2] |  |  | oil/3.58
CCc1cc(Br)cc(CC)c1C1=C(O)C2(CCCC(COC)C2)OC1=O (stereo not shown) [Example I-2-a-7] |  |  | oil/3.44
COCC1CCC2(CC1)OC(=O)C(c1cc(C)c(C)cc1C)=C2O (stereo not shown) [Example I-2-a-11] |  |  | oil/2.72
COCC1CCC2(CC1)OC(=O)C(c1c(C)cc(C)cc1C)=C2O (stereo not shown) [Example I-2-a-12] |  |  | oil/2.69
CCc1cc(Br)cc(CC)c1C1=C(O)C2(CCC(COC)CC2)OC1=O (stereo not shown) [Example I-2-a-13] |  |  | oil/3.38
CCc1cc(C)cc(CC)c1C1=C(O)C2(CCC(COC)CC2)OC1=O (stereo not shown) [Example I-2-a-14] |  |  | oil/3.19
COCCC1CCCC2(C1)OC(=O)C(c1cc(-c3ccc(Cl)cc3)ccc1C)=C2O (stereo not shown) [Example I-2-a-18] |  |  | oil/3.75
COCCC1CCCC2(C1)OC(=O)C(c1c(C)cc(Cl)cc1C)=C2O (stereo not shown) [Example I-2-a-20] |  |  | oil/3.03
